Assays:
[1] = target: T1, α7 nAChR subtype (Rattus norvegicus, UniProt Q05941); experiment: Radioligand binding, [3H]MLA, rat hippocampus membranes; details: for inhibition at 5 µM: read-out: α7 high through-put screening (HTS) result; for Ki: [3H]MLA 5 nM, rat hippocampus membranes, read-out: α7 Ki
T1 construct: The hippocampus was removed and placed in 10 volumes (weight:volume) of ice-cold preparative buffer; from tissue; host or cells: rat hippocampus membranes (female Sprague-Dawley)
Procedure: Rats (female, Sprague-Dawley), weighing 150-250 g, were maintained on a 12 h light/dark cycle and were allowed free access to water and food supplied by PMI Nutrition International, Inc. Animals were anesthetized with 70% CO2, then decapitated. Brains were removed and placed on an ice-cold platform. The hippocampus was removed and placed in 10 volumes (weight:volume) of ice-cold preparative buffer (137 mM NaCl, 10.7 mM KCl, 5.8 mM KH2PO4, 8 mM Na2HPO4, 20 mM HEPES (free acid), 5 mM iodoacetamide, 1.6 mM EDTA, pH 7.4); PMSF, dissolved in methanol to a final concentration of 100 μM, was added and the tissue suspension was homogenized by Polytron. The homogenate was centrifuged at 18,000×g for 20 min at 4° C. and the resulting pellet was re-suspended in 10 volumes of ice-cold water. After 60 min incubation on ice, a new pellet was collected by centrifugation at 18,000×g for 20 min at 4° C. The final pellet was re-suspended in 10 volumes of buffer and stored at −20° C. On the day of the assay, tissue was thawed, centrifuged at 18,000×g for 20 min, and then re-suspended in ice-cold PBS (Dulbecco's Phosphate Buffered Saline, 138 mM NaCl, 2.67 mM KCl, 1.47 mM KH2PO4, 8.1 mM Na2HPO4, 0.9 mM CaCl2, 0.5 mM MgCl2, Invitrogen/Gibco, pH 7.4) to a final concentration of approximately 2 mg protein/mL. Protein was determined by the method of Lowry et al., J. Biol. Chem. 193: 265 (1951), using bovine serum albumin as the standard.
The binding of [^3H]MLA was measured using a modification of the methods of Davies et al., Neuropharmacol. 38: 679 (1999). [^3H]MLA (Specific Activity=25-35 Ci/mmol) was obtained from Tocris. The binding of [^3H]MLA was determined using a 2 h incubation at 21° C. Incubations were conducted in 48-well micro-titre plates and contained about 200 μg of protein per well in a final incubation volume of 300 μL. The incubation buffer was PBS and the final concentration of [^3H]MLA was 5 nM. The binding reaction was terminated by filtration of the protein containing bound ligand onto glass fiber filters (GF/B, Brandel) using a Brandel Tissue Harvester at room temperature. Filters were soaked in de-ionized water containing 0.33% polyethyleneimine to reduce non-specific binding. Each filter was washed with PBS (3×1 mL) at room temperature. Non-specific binding was determined by inclusion of 50 μM non-radioactive MLA in selected wells.
The inhibition of [^3H]MLA binding by test compounds was determined by including seven different concentrations of the test compound in selected wells. Each concentration was replicated in triplicate. IC50 values were estimated as the concentration of compound that inhibited 50 percent of specific [^3H]MLA binding. Inhibition constants (Ki values), reported in nM, were calculated from the IC50 values using the method of Cheng et al., Biochem. Pharmacol. 22: 3099-3108 (1973).

[2] = target: T2, rat α4β2 nAChR subtype (Rattus norvegicus, UniProt P09483+P12390); experiment: Radioligand binding, [3H]nicotine, rat cortex membranes; details: [3H]nicotine 5 nM
T2 construct: The cerebral cortex was removed and placed in 20 volumes (weight:volume) of ice-cold preparative buffer; from tissue; host or cells: rat cerebral cortex membranes (female Sprague-Dawley)
Procedure: Preparation of Membranes from Rat Cortex: Rats (Female, Sprague-Dawley), weighing 150-250 g, were maintained on a 12 h light/dark cycle and were allowed free access to water and food supplied by PMI Nutrition International, Inc. Animals were anesthetized with 70% CO2, and then decapitated. Brains were removed and placed on an ice-cold platform. The cerebral cortex was removed and placed in 20 volumes (weight:volume) of ice-cold preparative buffer (137 mM NaCl, 10.7 mM KCl, 5.8 mM KH2PO4, 8 mM Na2HPO4, 20 mM HEPES (free acid), 5 mM iodoacetamide, 1.6 mM EDTA, pH 7.4); PMSF, dissolved in methanol to a final concentration of 100 μM, was added and the suspension was homogenized by Polytron. The homogenate was centrifuged at 18,000×g for 20 min at 4° C. and the resulting pellet was re-suspended in 20 volumes of ice-cold water. After 60 min incubation on ice, a new pellet was collected by centrifugation at 18,000×g for 20 min at 4° C. The final pellet was re-suspended in 10 volumes of buffer and stored at −20° C.
(§1) On the day of the assay, the frozen membranes were thawed and spun at 48,000×g for 20 min. The supernatant was decanted and discarded. The pellet was resuspended in Dulbecco's phosphate buffered saline (PBS, Life Technologies) pH 7.4 and homogenized with the Polytron for 6 seconds. Protein concentrations were determined using a Pierce BCA Protein Assay Kit, with bovine serum albumin as the standard (Pierce Chemical Company, Rockford, Ill.).
(§2) Membrane preparations (approximately 50 μg for human and 200-300 μg protein for rat α4β2) were incubated in PBS (50 μL and 100 μL respectively) in the presence of competitor compound (0.01 nM to 100 μM) and 5 nM [^3H]nicotine for 2-3 hours on ice. Incubation was terminated by rapid filtration on a multi-manifold tissue harvester (Brandel, Gaithersburg, Md.) using GF/B filters presoaked in 0.33% polyethyleneimine (w/v) to reduce non-specific binding. Tissue was rinsed 3 times in PBS, pH 7.4. Scintillation fluid was added to filters containing the washed tissue and allowed to equilibrate. Filters were then counted to determine radioactivity bound to the membranes by liquid scintillation counting (2200CA Tri-Carb LSC, Packard Instruments, 50% efficiency or Wallac Trilux 1450 MicroBeta, 40% efficiency, Perkin Elmer).
(§3) Data were expressed as disintegrations per minute (DPMs). Within each assay, each point had 2-3 replicates. The replicates for each point were averaged and plotted against the log of the drug concentration. IC50, which is the concentration of the compound that produces 50% inhibition of binding, was determined by least squares non-linear regression. Ki values were calculated using the Cheng-Prussof equation (1973): […]

[3] = target: T3, human α4β2 nAChR subtype (Homo sapiens, UniProt P17787+P43681); experiment: Radioligand binding, [3H]nicotine, membranes from SH-EP1/human α4β2 clonal cells; details: [3H]nicotine 5 nM, SH-EP1/human α4β2 cell membranes
T3 construct: expressed in transfected cells; host or cells: SH-EP1 clonal cells expressing human α4β2
Procedure: Preparation of membranes from SH-EP1/human α4β2 clonal cells: Cell pellets from 40 150 mm culture dishes were pooled, and homogenized by Polytron (Kinematica GmbH, Switzerland) in 20 milliliters of ice-cold preparative buffer. The homogenate was centrifuged at 48,000 g for 20 minutes at 4° C. The resulting pellet was re-suspended in 20 mL of ice-cold preparative buffer and stored at −20° C.
as §1, §2, §3

T1 sequence (Q05941 23-502): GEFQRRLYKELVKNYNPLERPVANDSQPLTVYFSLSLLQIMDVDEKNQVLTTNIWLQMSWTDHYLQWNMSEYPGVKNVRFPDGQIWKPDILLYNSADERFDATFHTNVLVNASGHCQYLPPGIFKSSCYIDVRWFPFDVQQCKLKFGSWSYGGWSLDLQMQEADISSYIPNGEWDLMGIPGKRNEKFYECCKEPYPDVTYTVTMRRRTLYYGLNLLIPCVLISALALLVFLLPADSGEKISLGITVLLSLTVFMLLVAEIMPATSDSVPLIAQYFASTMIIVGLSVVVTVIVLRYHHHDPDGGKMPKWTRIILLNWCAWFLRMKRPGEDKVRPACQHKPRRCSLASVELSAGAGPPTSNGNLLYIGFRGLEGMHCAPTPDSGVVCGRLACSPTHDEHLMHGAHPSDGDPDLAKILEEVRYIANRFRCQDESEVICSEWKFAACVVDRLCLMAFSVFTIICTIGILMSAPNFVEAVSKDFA
T3 sequence (P43681 29-627 limits assumed): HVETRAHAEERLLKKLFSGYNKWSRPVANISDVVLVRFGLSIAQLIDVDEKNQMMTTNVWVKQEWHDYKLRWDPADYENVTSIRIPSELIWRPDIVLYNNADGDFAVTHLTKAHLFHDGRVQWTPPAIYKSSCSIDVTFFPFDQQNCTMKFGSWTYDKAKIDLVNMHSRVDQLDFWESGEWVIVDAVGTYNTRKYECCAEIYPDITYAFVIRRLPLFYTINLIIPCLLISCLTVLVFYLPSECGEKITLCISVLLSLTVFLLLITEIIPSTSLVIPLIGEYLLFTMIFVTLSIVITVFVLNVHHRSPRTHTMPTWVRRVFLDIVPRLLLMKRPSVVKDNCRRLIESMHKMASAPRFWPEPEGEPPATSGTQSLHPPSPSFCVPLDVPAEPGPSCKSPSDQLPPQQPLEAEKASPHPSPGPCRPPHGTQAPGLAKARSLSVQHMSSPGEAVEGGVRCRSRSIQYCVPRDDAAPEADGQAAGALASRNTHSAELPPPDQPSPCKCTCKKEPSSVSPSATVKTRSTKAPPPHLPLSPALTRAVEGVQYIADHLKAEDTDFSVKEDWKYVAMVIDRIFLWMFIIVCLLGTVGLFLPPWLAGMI
T3 sequence (P17787 26-502): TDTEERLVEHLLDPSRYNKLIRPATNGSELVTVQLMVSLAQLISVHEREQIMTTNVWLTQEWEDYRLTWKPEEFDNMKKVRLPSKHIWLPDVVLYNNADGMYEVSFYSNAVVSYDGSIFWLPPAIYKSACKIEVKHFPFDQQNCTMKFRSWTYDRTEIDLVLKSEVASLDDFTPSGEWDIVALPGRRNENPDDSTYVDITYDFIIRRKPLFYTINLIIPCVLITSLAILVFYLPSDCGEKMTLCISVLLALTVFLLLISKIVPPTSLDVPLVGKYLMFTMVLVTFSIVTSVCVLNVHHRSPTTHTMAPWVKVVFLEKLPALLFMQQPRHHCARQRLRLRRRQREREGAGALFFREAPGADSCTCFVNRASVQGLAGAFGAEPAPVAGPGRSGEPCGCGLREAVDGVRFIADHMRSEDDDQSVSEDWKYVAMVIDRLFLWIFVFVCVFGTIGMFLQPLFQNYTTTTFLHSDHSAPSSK
T2 sequence (P09483 31-630): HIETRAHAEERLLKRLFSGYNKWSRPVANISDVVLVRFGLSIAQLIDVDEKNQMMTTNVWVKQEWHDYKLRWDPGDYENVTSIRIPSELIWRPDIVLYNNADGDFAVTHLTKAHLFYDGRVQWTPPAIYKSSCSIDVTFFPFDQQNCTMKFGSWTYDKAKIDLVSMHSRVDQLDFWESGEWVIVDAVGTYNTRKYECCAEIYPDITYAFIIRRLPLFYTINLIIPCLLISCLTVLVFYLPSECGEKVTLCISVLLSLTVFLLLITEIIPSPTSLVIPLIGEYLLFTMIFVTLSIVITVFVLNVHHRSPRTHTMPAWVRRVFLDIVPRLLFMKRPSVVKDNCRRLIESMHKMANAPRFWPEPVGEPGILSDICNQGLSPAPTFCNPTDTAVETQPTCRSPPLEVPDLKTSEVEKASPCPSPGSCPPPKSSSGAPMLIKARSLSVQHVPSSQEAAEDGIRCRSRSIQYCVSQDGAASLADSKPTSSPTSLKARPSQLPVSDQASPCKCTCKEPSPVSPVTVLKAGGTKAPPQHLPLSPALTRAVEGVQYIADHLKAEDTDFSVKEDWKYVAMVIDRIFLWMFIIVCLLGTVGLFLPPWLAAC
T2 sequence (P12390 25-500): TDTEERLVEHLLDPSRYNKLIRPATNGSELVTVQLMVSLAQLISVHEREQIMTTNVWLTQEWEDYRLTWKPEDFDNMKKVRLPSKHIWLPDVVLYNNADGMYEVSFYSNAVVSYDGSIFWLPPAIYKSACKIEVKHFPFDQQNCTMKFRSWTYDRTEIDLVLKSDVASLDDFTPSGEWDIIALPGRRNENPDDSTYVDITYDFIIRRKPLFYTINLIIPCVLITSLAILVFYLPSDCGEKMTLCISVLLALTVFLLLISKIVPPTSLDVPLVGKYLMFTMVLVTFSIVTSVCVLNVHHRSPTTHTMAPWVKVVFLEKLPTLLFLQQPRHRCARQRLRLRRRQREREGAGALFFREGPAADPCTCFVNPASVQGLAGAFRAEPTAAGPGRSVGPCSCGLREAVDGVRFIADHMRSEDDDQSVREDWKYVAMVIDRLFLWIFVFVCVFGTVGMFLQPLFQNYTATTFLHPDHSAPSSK

Row | SMILES | inhibition at 5 µM [1] [%] | Ki [2] [nM] | Ki [3] [nM] | Ki [1] [nM]
1 | O=C([C@H]1C[C@@H]1F)N1CC2CNCC2C1 (stereo partly drawn) [Example 10-29] | < 50 | 21.3 | 5.9 | 
2 | O=C(C1CC2CCC1C2)N1CC2CNCC(C2)C1 (stereo not drawn) [Example 10-93] | < 50 | 49.7 | 35.3 | 
3 | O=C(C1CC=CCC1)N1CC2CNCC(C2)C1 (stereo not drawn) [Example 10-98] |  | 198 | 134 | 794
4 | O=C(C1CC1)N1CC2CNCC(C2)C1 [Example 10-56] |  | 2.8 | 0.4 | 95.7
5 | C=CCC(=O)N1CC2CNCC2C1 (stereo not drawn) [Example 10-5] | < 50 | 22.5 | 140 | 
6 | CC(C)C(=O)N1CC2CNCC(C2)C1 [Example 10-81] |  | 102 | 44.4 | 645
7 | O=C([C@H]1C[C@H]1F)N1CC2CNCC2C1 (stereo partly drawn) [Example 10-28] | < 50 | 10 | 2.9 | 
8 | CC(C)(F)C(=O)N1CC2CNCC2C1 (stereo not drawn) [Example 10-41] | < 50 | 12 | 26.9 | 
9 | CC(C)=CC(=O)N1CC2CNCC(C2)C1 [Example 10-60] | < 50 | 25.9 | 13.8 | 
10 | O=C([C@@H]1CC2C=CC1C2)N1CC2CNCC(C2)C1 (stereo partly drawn) [Example 10-95] | < 50 | 4.9 | 2.2 | 
11 | COC1CC(C(=O)N2CC3CNCC3C2)C1 (stereo not drawn) [Example 10-53] | < 50 | 83.7 | 147 | 
12 | NC(=O)CC(=O)N1CC2CNCC2C1 (stereo not drawn) [Example 10-12] | < 50 | 1390 | 746 | 
13 | O=C([C@H]1C[C@H]1F)N1CC2CNCC2C1 (stereo partly drawn) [Example 10-38] | < 50 | 9.7 | 30 | 
14 | O=C(CCF)N1CC2CNCC(C2)C1 [Example 10-80] | < 50 | 13.8 | 9.5 | 
15 | COCC(=O)N1CC2CNCC2C1 (stereo not drawn) [Example 10-4] |  | 137 | 323 | 12400
16 | O=C(N1CC2CNCC2C1)C1(C(F)(F)F)CC1 (stereo not drawn) [Example 10-17] | < 50 | 419 | 303 | 
17 | CC(C)C(=O)N1CC2CNCC2C1 (stereo not drawn) [Example 10-31] | < 50 | 56 | 28.6 | 
18 | O=C([C@@H]1C[C@@H]1F)N1CC2CNCC2C1 (stereo partly drawn) [Example 10-39] | < 50 | 6.6 | 3.8 | 
19 | COCCC(=O)N1CC2CNCC(C2)C1 [Example 10-62] | < 50 | 175 | 127 | 
